Source: ChEMBL document CHEMBL1201862, “PubChem BioAssay data set” (2004)
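How tested: cells in 96-well plates exposed to compound for 48 hours at five concentrations. GI50 = concentration required for 50% inhibition of growth.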 The source made the active and inactive calls. Cut-off read from the data, not from the text of the source: active = GI50 up to about 1.1 µM and inactive = higher.

How the values were obtained:
Assay in all cases: inhibition of tumour cell growth, NCI panel, 48 h
ACHN = tested on: ACHN
CCRF-CEM = tested on: CCRF-CEM
HOP-92 = tested on: HOP-92
IGROV-1 = tested on: IGROV-1
M14 = tested on: M14
Malme-3M = tested on: Malme-3M
OVCAR-3 = tested on: OVCAR-3
OVCAR-5 = tested on: OVCAR-5
SF-268 = tested on: SF-268
SF-539 = tested on: SF-539
SK-MEL-28 = tested on: SK-MEL-28
SK-OV-3 = tested on: SK-OV-3
SW-620 = tested on: SW-620
U-251 = tested on: U-251
UACC-62 = tested on: UACC-62
HL-60 = tested on: HL-60
TK-10 = tested on: TK-10
SR = tested on: SR

Measured: GI50

Cc1ccc(S(=O)(=O)NC2CCCCO2)cc1 (stereo not given)
inactive: ACHN > 100 µM | CCRF-CEM > 100 µM | HOP-92 > 100 µM | IGROV-1 > 100 µM | M14 > 100 µM | Malme-3M > 100 µM | OVCAR-3 > 100 µM | OVCAR-5 > 100 µM | SF-268 > 100 µM | SF-539 > 100 µM | SK-MEL-28 > 100 µM | SK-OV-3 > 100 µM | SW-620 > 100 µM | U-251 > 100 µM | UACC-62 > 100 µM

O=C(CNc1nncs1)NO
inactive: ACHN > 100 µM | CCRF-CEM > 10 µM | HL-60 > 100 µM | HOP-92 38.2 µM | IGROV-1 > 100 µM | M14 > 100 µM | Malme-3M > 100 µM | OVCAR-3 > 100 µM | OVCAR-5 > 100 µM | SF-268 > 100 µM | SF-539 > 100 µM | SK-MEL-28 > 100 µM | SK-OV-3 > 100 µM | SW-620 > 100 µM | TK-10 > 100 µM | U-251 > 100 µM | UACC-62 > 100 µM

CC1C(=O)CCC1C(Sc1ccccc1)(Sc1ccccc1)Sc1ccccc1 (stereo not given)
inactive: ACHN 19.9 µM | CCRF-CEM 3.48 µM | HL-60 5.83 µM | HOP-92 8.43 µM | IGROV-1 15.1 µM | M14 25 µM | Malme-3M 37.1 µM | OVCAR-3 17.6 µM | OVCAR-5 > 100 µM | SF-268 10.7 µM | SF-539 18.7 µM | SK-MEL-28 22.1 µM | SK-OV-3 80.2 µM | SW-620 27 µM | TK-10 47.9 µM | U-251 33.8 µM | UACC-62 18 µM

CN[C@H](C)[C@@H](OC)c1ccccc1
inactive: ACHN > 100 µM | CCRF-CEM > 100 µM | HL-60 > 100 µM | HOP-92 > 100 µM | IGROV-1 > 100 µM | M14 > 100 µM | Malme-3M > 100 µM | OVCAR-3 > 100 µM | OVCAR-5 > 100 µM | SK-MEL-28 > 100 µM | SK-OV-3 > 100 µM | SW-620 > 100 µM | TK-10 > 100 µM | U-251 > 100 µM | UACC-62 > 100 µM

Cc1c(C(=O)Nc2ccc(Cl)cc2)nc(N)nc1-c1cccc(Cl)c1
inactive: ACHN > 100 µM | CCRF-CEM > 100 µM | HL-60 39.2 µM | HOP-92 28.4 µM | IGROV-1 > 100 µM | M14 55.7 µM | Malme-3M > 100 µM | OVCAR-3 > 100 µM | OVCAR-5 > 100 µM | SF-268 > 100 µM | SF-539 > 100 µM | SK-MEL-28 > 100 µM | SK-OV-3 > 100 µM | SR > 100 µM | SW-620 62.7 µM | U-251 > 100 µM | UACC-62 > 100 µM

Cc1ccc(C)c(NC(=O)c2cccc([N+](=O)[O-])c2O)c1
inactive: ACHN 15.1 µM | CCRF-CEM > 100 µM | HL-60 > 100 µM | HOP-92 12.7 µM | IGROV-1 22.2 µM | M14 55.6 µM | Malme-3M 17.8 µM | OVCAR-3 27.1 µM | OVCAR-5 87.7 µM | SF-268 22 µM | SF-539 32.3 µM | SK-MEL-28 27.1 µM | SK-OV-3 29.9 µM | SW-620 37.6 µM | U-251 23.9 µM | UACC-62 5.74 µM

CC(=O)OC1(C#N)CC2OC1C1NC21 (stereo not given)
inactive: ACHN > 100 µM | CCRF-CEM > 100 µM | HL-60 > 100 µM | HOP-92 > 100 µM | IGROV-1 > 100 µM | M14 > 100 µM | Malme-3M > 100 µM | OVCAR-5 > 100 µM | SF-268 > 100 µM | SF-539 > 100 µM | SK-MEL-28 > 100 µM | SK-OV-3 > 100 µM | SW-620 > 100 µM | TK-10 > 100 µM | U-251 > 100 µM | UACC-62 > 100 µM

CCc1cccc(C(C)CC)c1NC(=O)CC1C(=O)Nc2ccccc2[S+]1[O-] (stereo not given)
inactive: ACHN 44.2 µM | CCRF-CEM 24.8 µM | HL-60 49.4 µM | HOP-92 16.7 µM | IGROV-1 19.9 µM | M14 22 µM | Malme-3M 37.2 µM | OVCAR-3 50.7 µM | OVCAR-5 33.1 µM | SF-268 40.9 µM | SF-539 23 µM | SK-MEL-28 26.1 µM | SR 30 µM | SW-620 39.5 µM | TK-10 > 100 µM | U-251 14.9 µM | UACC-62 10 µM
